Values after ≈ are worked out from the molar mass of the structure shown. Read-outs that look alike come from different tables or passages of the source. Where a SMILES comes first, the peptide text is derived from it. Bridges are numbered along the chain shown (N, C = ends). Roman numbers before positions name the chains, in order.
Columns and labels:
[1] = system: mouse splenocytes inhibited by MDA-MB-231 tumour cells expressing PD-L1; experiment: Mouse splenocyte proliferation rescue, CFSE method; format: cell-based; details: screened at 100 nm concentration and compared with 100 nm Comp 8
Experimental: Mouse splenocytes harvested from 6-8 weeks old C57 BL6 mice.; RPMI 1640 (GIBCO, Cat #11875); DMEM with high glucose (GIBCO, Cat #D6429); Fetal Bovine Serum [Hyclone, Cat #SH30071.03]; Pencilin (10000 unit/ml)-Streptomycin(10,000 μg/ml) Liquid (GIBCO, Cat #15140-122); MEM Sodium Pyruvate solution 100 mM (100×), Liquid (GIBCO, Cat #11360); Nonessential amino acid (GIBCO, Cat #11140); L-Glutamine (GIBCO, Cat #25030); Anti-CD3 antibody (eBiosciences—16-0032); Anti-CD28 antibody (eBiosciences—16-0281); ACK lysis buffer (1 mL) (GIBCO, Cat #-A10492); Histopaque (density—1.083 gm/ml) (SIGMA 10831); Trypan blue solution (SIGMA-T8154); Hemacytometer (Bright line-SIGMA Z359629); FACS Buffer (PBS/0.1% BSA): Phosphate Buffered Saline (PBS) pH 7.2 (HiMedia TS1006) with 0.1% Bovine Serum Albumin (BSA) (SIGMA A7050) and sodium azide (SIGMA 08591); 5 mM stock solution of CFSE: CFSE stock solution was prepared by diluting lyophilized CFSE with 180 μL of Di methyl Sulfoxide (DMSO C2H6SO, SIGMA-D-5879) and aliquoted in to tubes for further use. Working concentrations were titrated from 10 μM to 1 μM. (eBioscience—650850-85); 96-well format ELISA plates (Corning CLS3390); BD FACS caliber (E6016).
Splenocytes harvested in a 50 ml falcon tube by mashing spleen in a 40 μm cell strainer were further treated with 1 ml ACK lysis buffer for 5 mins at RT. After washing with 9 ml of RPMI complete media, cells re-suspended in 3 ml of 1×PBS in a 15 ml tube. 3 ml of histopaque was added very carefully to the bottom of the tube without disturbing overlaying splenocyte suspension. Spin the tube at 800×g for 20 mins at RT. Opaque layer of lymphocytes is collected carefully without disturbing/mixing any of the layers. Cells washed twice with cold 1×PBS followed by total cell counting using trypan blue exclusion method and used further for cell based assays.
Tumour cells (MDMBA231) are cultured and maintained in high glucose complete DMEM media. 1×10^5 tumour cells were plated in 96 well plates along with required conc. of PD1 derived peptide and allowed to adhere at 37° C. for 4 hrs. 1×10^6 cells/ml of harvested splenocytes are treated with 5 μM of CFSE in pre warmed 1×PBS/0.1% BSA solution for 10 mins at 37° C. Excess CFSE was quenched using 5 volumes of ice-cold culture media to the cells and incubated on ice for 5 mins. CFSE labeled splenocytes were further given three washes with ice cold complete DMEM media. CFSE labeled 1×10^5 splenocytes added to above wells containing tumours cells and test compounds. Splenocytes were stimulated with anti-CD3 and anti-CD28 antibody (1 μg/ml each) and the co-culture was further incubated for 72 hrs at 37° C. with 5% CO2. Cells were harvested and washed thrice with ice cold FACS buffer and % proliferation was analyzed using a FACS caliber with 488 nm excitation and 521 nm emission filters. Each experimental condition was carried out in triplicates and each experiment at least carried out three times. Splenocyte proliferation was analyzed using cell quest FACS program and fold induction was calculated by normalizing individual values to percent background proliferation. Fold induction=Percent splenocyte proliferation/percent background proliferation Stimulated splenocytes: Splenocytes+anti-CD3/CD28 stimulation Background proliferation: Splenocytes+anti-CD3/CD28+Tumour Percent Proliferation rescue={(compound percent proliferation−Background percent proliferation)/(Stimulated percent proliferation−Background percent proliferation)}*100.

[2] = in vitro
Experimental: Briefly, overnight fasted rats were sacrificed by cervical dislocation; kidneys were removed, washed with chilled saline and decapsulated. The renal tissue was sliced and a 5% homogenate was made in buffer containing 2 mM Tris-HCl, 50 mM mannitol pH 7.1 using 10 strokes in a Porter-Elvelhemhomogeniser. The homogenate was centrifuged at 250×g for 5 min and the pellet was re-homogenized (four strokes) in the same buffer. Both the homogenate preparations were pooled (an aliquot of sample was taken for enzyme assays), allowed to remain at 4° C. for 15 min and filtered using a nylon mesh cloth. To this, a 50% PEG solution in water was added to make a final concentration of 10% PEG, stirred for 15 min continuously at 4° C. and centrifuged at 7500×g for 10 min. The pellet was discarded and the supernatant was spun at 12,000×g for 10 min. This pellet was discarded and the supernatant was centrifuged at 27,000×g for 40 min. To the pellet, 15 ml suspension buffer containing 10 mM Tris-HCl and 300 mM mannitol, pH 7.1 was added, centrifuged at 27,000×g for 40 min. The pellet was washed twice with the same suspension buffer and finally suspended 1 ml of the same buffer using a syringe fitted with a 26-gauge needle.
1. Microsomal protein working solution was prepared as mentioned above (0.55 mg/ml) in 50 mM potassium phosphate buffer (pH 7.4)
2. Test compound (compound 69) working stock solutions at concentration of 4 μM was prepared in 50 mM potassium phosphate buffer (pH 7.4)
3. 125 μL of test compound (compound 69) from step 2 diluted with 100 μL of buffer and 275 μl of microsomal protein solution from step 2 was pre-incubated separately for 10 mins at 37° C.
4. Both the test solution from step 3 was mixed together and the reaction mixture was aliquoted at various time intervals and processed by SPE method.
Kidney brush border stability of the compounds was calculated as the amount of substrate metabolized by the incubation with kidney brush border microsomes. Initial amount of substrate (concentration at T0) was measured and KBBM stability was assessed by the disappearance of compound at various time points based on the change in analyte to internal standard peak height ratio using LCMS/MS (API 4000, AB Sciex). Results are expressed as mean±SD of test compound remaining at any given time point (Table VI).

[3] = system: 4T1 cells; details: 3 mg/kg s.c.; during dosing period
Experimental: On day 0, 4T1 cells grown in RPMI 1640 containing 10% FBS at 70 to 75% confluency were harvested and 0.1×10^6 cells per animal were injected along with matrigel orthotopically to mammary fat pad. […] Vehicle control group of mice received only saline. Each group consisted of ten animals. Body weight and clinical signs were recorded daily. Tumour volume was measured by slide callipers.

[4] = system: Organisms (not named); experiment: organism not typed
Experimental: Required quantity of the compound was weighed and dissolved in water/dimethyl sulphoxide/suitable solvent to yield 1 mg/ml stock solution. The stock solution was diluted in MHB/CAMHB to yield 8 μg/ml or 64 μg/ml or 512 μg/ml solution as per requirement. Serial two fold dilutions of the compound was prepared using MHB/CAMHB in 96 well microtitre trays using a multichannel pipette. Organisms were grown in MHB/CAMHB for 4-5 hrs at 35±2° C., 110±10 rpm. Optical density (OD) of the cultures is adjusted to 625 nm which corresponds to 0.5 Mc Farland standard (1-2×10^8 cfu/ml) and further diluted to achieve a final inoculum of […]×10^4 cfu/well. Broth, compound and organism controls were set up. Microdilution trays were incubated at 35±2° C. for 16-20 hours in an ambient air incubator. After the incubation period, growth of organism in the wells was detected by unaided eye facilitated by a viewing device.

[5] = system: B16F10 cells; details: 5 mg/kg s.c.; during the period of dosing
Experimental: C57/Black6 female mice (Aurigene, Bangalore, India) aged 6 to 8 weeks were used for the experiment. Animals were acclimatized for a week in the experimental room before conducting the experiment.
On day 0, B16F10 cells grown in DMEM containing 10% FBS at 70 to 75% confluency were harvested and 1×10^6 cells per animal were injected to mice subcutaneously on the right flank region. […] Vehicle control group of mice received only saline. Each group consisted of ten animals. Body weight and clinical signs were recorded daily.

[6] = rat, kidney brush border membrane (KBBM) preparation, pH 7.4

Q: For `CC[C@H](C)[C@H](NC(=O)[C@H](CCCCN)NC(=O)[C@H](C)NC(=O)[C@H](CCCCN)NC(=O)[C@@H]1CCCN1C(=O)[C@H](Cc1c[nH]cn1)NC(=O)[C@H](CC(C)C)NC(=O)[C@H](CCC(N)=O)NC(=O)[C@@H](NC(=O)[C@@H](NC(=O)[C@H](CCC(N)=O)NC(=O)[C@H](Cc1ccccc1)NC(=O)[C@H](CCCCNC(=O)[C@H](CC(C)C)NC(=O)[C@H](CC(=O)O)NC(=O)[C@H](CCC(=O)O)NC(=O)[C@H](CO)NC(=O)[C@H](Cc1c[nH]c2ccccc12)NC(=O)[C@H](CC(N)=O)NC(=O)[C@@H](N)CO)NC(=O)[C@H](CC(C)C)NC(=O)[C@H](CC(=O)O)NC(=O)[C@H](CCC(=O)O)NC(=O)[C@H](CO)NC(=O)[C@H](Cc1c[nH]c2ccccc12)NC(=O)[C@H](CC(N)=O)NC(=O)[C@@H](N)CO)[C@@H](C)CC)[C@@H](C)CC)C(=O)N[C@@H](CCC(=O)O)C(=O)N[C@@H](CCC(=O)O)C(N)=O` [Compound 69] (I: H-SNWSEDLKFQIIQLHPKAKIEE-NH2 / II: H-SNWSEDL; amide I:8-II:C), which “Percent rescue for various compounds in mouse splenocyte proliferation CFSE based assay” value (“Percent rescue for various compounds” below) [1] is on record?
A: 48%

Q: What about the “RKBBM % compound remaining” value ([2]; 0 min) of the same compound?
A: 100%

Q: What about the remaining at 10 min, 1 μM [2, 6] of the same compound?
A: 100%

Q: And the remaining at 0.5 h, 1 μM [2, 6]?
A: 98%

Q: And the remaining at 1 h, 1 μM [2, 6]?
A: 81%

Q: With “sntsesfk(sntsesf)frvtqlapkaqike-NH2 [Compound 13]” as the compound, how does the “Percent rescue in mouse splenocyte proliferation CFSE based assay (cell printed with nM, control peptide)” value ([1]; control peptide) read?
A: 0-12 nM-

Q: Which “Percent rescue for various compounds” value [1] does the source give for “Biotin-Ahx-EKIQAKPAYWNLVK(KDTQNS)DTQNS-NH2 [Compound 61]” here?
A: 67%

Q: With “Biotin-Ahx-sntsesfk(sntsesf)frvtqlapkaqike-NH2 [Compound 60]” as the compound, how does the “Percent rescue for various compounds” value [1] read?
A: 14.9%

Q: Which “Percent rescue for various compounds” value [1] does the source give for EDRSQPGQDCR-NH2 [Compound 4] here?
A: 74.7%

Q: With SNTSESF-NH2 [Compound 1] as the compound, how does the “Percent rescue for various compounds” value [1] read?
A: 96.5%

Q: For `CC[C@H](C)[C@H](NC(=O)[C@H](CCC(N)=O)NC(=O)[C@H](C)NC(=O)[C@H](CCCCN)NC(=O)[C@@H]1CCCN1C(=O)[C@H](C)NC(=O)[C@H](CC(C)C)NC(=O)[C@H](CCC(N)=O)NC(=O)[C@@H](NC(=O)[C@@H](NC(=O)[C@H](CCCNC(=N)N)NC(=O)[C@H](Cc1ccccc1)NC(=O)C(CCCCNC(=O)[C@H](Cc1ccccc1)NC(=O)[C@H](CO)NC(=O)[C@H](CCC(=O)O)NC(=O)[C@H](CO)NC(=O)[C@@H](NC(=O)[C@H](CC(N)=O)NC(=O)[C@@H](N)CO)[C@@H](C)O)NC(=O)[C@H](Cc1ccccc1)NC(=O)[C@H](CO)NC(=O)[C@H](CCC(=O)O)NC(=O)[C@H](CO)NC(=O)[C@@H](NC(=O)[C@H](CC(N)=O)NC(=O)[C@@H](N)CO)[C@@H](C)O)C(C)C)[C@@H](C)O)C(=O)N[C@@H](CCCCN)C(=O)N[C@@H](CCC(=O)O)C(N)=O` (stereo partly shown) [Compound 8], which Body weight [3] is on record?
A: no body weight reduction

Q: What about the MIC ([4]; broth microdilution, 16-20 hours at 35±2° C.) of the same compound?
A: > 32 µg/mL

Q: And the Body weight [5]?
A: no body weight reduction

Q: What about the Clinical signs [5] of the same compound?
A: no clinical signs

Q: With FRVTQLAPKAQIKE-NH2 [Compound 43] as the compound, how does the “Percent rescue for various compounds” value [1] read?
A: 66%

Q: Which “Percent rescue for various compounds” value [1] does the source give for CGAISLAPKAQIKE-NH2 [Compound 5] here?
A: 68%

Q: With `O=C(O)c1cn(C2CC2)c2cc(N3CCNCC3)c(F)cc2c1=O` [ciprofloxacin] as the compound, how does the MIC [4] read?
A: 0.007 µg/mL (≈ 0.0211 µM)

Q: Which MIC [4] does the source give for `C[C@H]1COc2c(N3CCN(C)CC3)c(F)cc3c(=O)c(C(=O)O)cn1c23` [levofloxacin] here?
A: 0.015 µg/mL (≈ 0.0415 µM)

Q: Which “Percent rescue for various compounds” value [1] does the source give for SNTSESFFRVTQLAPKAQIKE-NH2 [Compound 26] here?
A: 86.6%

Reference: patent publication US9783578B2, “Immunosuppression modulating compounds” (AURIGENE DISCOVERY TECHNOLOGIES LIMITED, priority 2010, dated 2017)
